These results are taken from patent US20140371304A1, “METHOD FOR SUPPRESSING TUMORIGENICITY OF STEM CELLS” (SUCAMPO AG, priority 2013, published 2014).

The test deals with C57/BL6 mouse embryonic stem cells. Briefly: Tumor formation in SCID-beige mice from mouse embryonic stem cells pre-treated with compound. Format: in vivo. The following applies: for Weight of kidney capsule tumor, mean / Volume of kidney capsule tumor, (after harvesting) mean / Volume of kidney capsule tumor, (within mice) mean / Weight of testis tumor, mean / Volume of testis tumor, (after harvesting) mean / Volume of testis tumor, (within mice) mean: MES cells treated with 1 micromolar for total 120 hrs, 1×10^6 cells/site injected to Fox Chase SCID-beige mice, 3 weeks post injection; for Weight of kidney capsule tumor, mean / Weight of testis tumor, mean: after harvesting; for Volume of kidney capsule tumor, (after harvesting) mean / Volume of testis tumor, (after harvesting) mean: measured after harvesting; for Volume of kidney capsule tumor, (within mice) mean / Volume of testis tumor, (within mice) mean: measured before harvesting; for tumorigenic potential of mouse ES cells: conclusion in words; for tumorigenic potential of mouse ES cells / volume and weight of the tumor tissues in kidneys and testes: MES cells treated with 1 micromolar, injected to SCID-beige mice; for volume and weight of the tumor tissues in kidneys and testes: result in words. The method, then:
ESGRO COMPLETE™ C57/BL6 mouse embryonic stem cells (MES, Millipore # SF-CMTI-2) were grown in 0.1% gelatin coated T75 culture flasks using ESGRO complete serum free clonal grade medium (Millipore # SF001-B) and ESGRO complete supplement (Millipore # SF012-250, containing selective GSK3β inhibitor). Cells were treated for 96 hrs with either 1 micromolar of Compound-1 ((−)-7-[(2R,4aR,5R,7aR)-2-(1,1-difluoropentyl)-2-hydroxy-6-oxooctahydrocyclopenta[b]pyran-5-yl]heptanoic acid), Compound-2 ((+)-isopropyl (Z)-7-[(1R,2R,3R,5S)-3,5-dihydroxy-2-(3-oxodecyl)cyclopentyl]hept-5-enoate) or vehicle (0.1% DMSO) until they reached 60% confluence. Drugs and media were changed daily. Cells were incubated in the presence of freshly added drug for 96 hrs, and then tested for mycoplasma over the next 24 hrs. Therefore, the cells were exposed to vehicle or Compound-1 or -2 for a total of 120 hrs. The cells were harvested and mixed with 30% matrigel. The mixture was injected to Fox Chase SCID-beige mice at 1×10^6 cells/site Tumors were collected after 3 weeks of post injection from kidney and testis. Tumor volumes were measured before and after harvesting from the mice. Tumor weight was also measured after harvesting from mice.

As to `CCCCC(F)(F)[C@@]1(O)CC[C@H]2[C@@H](CC(=O)[C@@H]2CCCCCCC(=O)O)O1` [Compound-1, (−)-7-[(2R,4aR,5R,7aR)-2-(1,1-difluoropentyl)-2-hydroxy-6-oxooctahydrocyclopenta[b]pyran-5-yl]heptanoic acid], the “Weight of kidney capsule tumor, mean” value is recorded as 1.40 g; the “Volume of kidney capsule tumor, (after harvesting) mean” value is 2.10 cm^3; the “Volume of kidney capsule tumor, (within mice) mean” value is reported as 5.6 cm^3; the “Weight of testis tumor, mean” value was determined as 1.87 g. Besides, the “Volume of testis tumor, (after harvesting) mean” value stood at 3.70 cm^3; the “Volume of testis tumor, (within mice) mean” value stood at 10.42 cm^3; the “tumorigenic potential of mouse ES cells” value is listed as “greatly reduce”; the “volume and weight of the tumor tissues in kidneys and testes” value is reported as “reduced”.
For `CCCCCCCC(=O)CC[C@@H]1[C@@H](C/C=C\CCCC(=O)OC(C)C)[C@@H](O)C[C@H]1O` [Compound-2, (+)-isopropyl (Z)-7-[(1R,2R,3R,5S)-3,5-dihydroxy-2-(3-oxodecyl)cyclopentyl]hept-5-enoate], the “Weight of kidney capsule tumor, mean” value worked out at 2.13 g; the “Volume of kidney capsule tumor, (after harvesting) mean” value is recorded as 5.44 cm^3; the “Volume of kidney capsule tumor, (within mice) mean” value worked out at 9.12 cm^3; the “Weight of testis tumor, mean” value is 1.33 g. Also, the “Volume of testis tumor, (after harvesting) mean” value stood at 2.68 cm^3; the “Volume of testis tumor, (within mice) mean” value amounted to 5.66 cm^3; the “tumorigenic potential of mouse ES cells” value is given as “greatly reduce”; the “volume and weight of the tumor tissues in kidneys and testes” value is recorded as “reduced”.
